Measured values from ChEMBL document CHEMBL1125188, “Synthesis and evaluation of stilbene and dihydrostilbene derivatives as potential anticancer agents that inhibit tubulin polymerization” (J Med Chem, 1991).

Columns and labels:
Assay type in all cases: functional
Settings in all cases: Homo sapiens, read-out: ED50 (the source's name)
[1] = test system: SK-MEL-5; test: Cytotoxic concentration required to inhibit 50% cell growth in SKMEL-5 melanoma cell lines
[2] = test system: MLM; test: Cytotoxic concentration required to inhibit 50% cell growth in MLM melanoma cell lines
[3] = test system: A549; test: Cytotoxic concentration required to inhibit 50% cell growth in A-549 lung carcinoma cell lines
[4] = test system: MCF7; test: Cytotoxic concentration required to inhibit 50% cell growth in MCF-7 breast carcinoma cell lines
[5] = test system: HT-29; test: Cytotoxic concentration required to inhibit 50% cell growth in HT-29 colon adenocarcinoma cell lines

SMILES	EC50 [1]	EC50 [2]	EC50 [3]	EC50 [4]	EC50 [5]
COc1cc(/C=C/c2ccc(Cl)cc2)cc(OC)c1OC	> 25 µM	> 25 µM	> 25 µM	> 25 µM	> 25 µM
COc1cc(CCc2cc(OC)c(OC)c(OC)c2)cc(OC)c1OC	> 25 µM	> 25 µM	> 25 µM	> 25 µM	> 25 µM
COc1cc(CCc2ccc(OC)c(OC)c2OC)cc(OC)c1OC	> 25 µM	> 25 µM	> 25 µM	> 25 µM	> 25 µM
COc1cc(/C=C\c2ccc(O[Si](C)(C)C(C)(C)C)cc2)cc(OC)c1OC	7.59 µM	17.2 µM	11 µM	7.29 µM	10.6 µM
COc1cc(CCc2ccccc2)cc(OC)c1OC	> 25 µM	> 25 µM	> 25 µM	> 25 µM	> 25 µM
COc1cc(OC)c(OC)cc1/C=C/c1ccccc1	> 25 µM	> 25 µM	> 25 µM	8.5 µM	> 25 µM
COc1ccc(CNc2cc(OC)c(OC)c(OC)c2)cc1OC	> 25 µM	> 25 µM	> 25 µM	> 25 µM	> 25 µM
COc1cccc(/C=C/c2cc(OC)c(OC)c(OC)c2)c1	0.5 µM	> 25 µM	9.8 µM	12.2 µM	7.3 µM
COc1ccc(/C=C\c2ccc(OC)c(OC)c2OC)cc1	1.1 µM	10.9 µM	0.97 µM	0.23 µM	1 µM
COc1cc(/C=C\c2ccc([N+](=O)[O-])cc2)cc(OC)c1OC	> 25 µM	> 25 µM	> 25 µM	> 25 µM	> 25 µM
COc1cc(CCc2ccc(N)cc2)cc(OC)c1OC	12.7 µM	> 25 µM	12.2 µM	11.9 µM	24.6 µM
COc1cc(/C=C/c2cc(OC)c(OC)c(OC)c2)cc(OC)c1OC	> 25 µM	> 25 µM	> 25 µM	> 25 µM	> 25 µM
COc1cc(/C=C/c2ccc(OC(C)=O)cc2)cc(OC)c1OC	4.6 µM	13 µM	9.7 µM	9.6 µM	5.4 µM
COc1cc(CNc2cc(OC)c(OC)c(OC)c2)cc(OC)c1OC	> 25 µM	> 25 µM	> 25 µM	> 25 µM	> 25 µM
COc1cc(/C=C\c2ccc(O)cc2)cc(OC)c1OC	2.27 µM	12.6 µM	12.7 µM	5.7 µM	1.75 µM
COc1cccc(CCc2cc(OC)c(OC)c(OC)c2)c1	9.2 µM	> 25 µM	11.7 µM	12.4 µM	7.6 µM
COc1cc(/C=C/c2ccc(N)cc2)cc(OC)c1OC	> 25 µM	> 25 µM	> 25 µM	> 25 µM	> 25 µM
COc1ccc(CCc2ccccc2)c(OC)c1OC	> 25 µM	> 25 µM	> 25 µM	> 25 µM	> 25 µM
COc1ccc(CCc2ccccc2)cc1OC	> 25 µM	> 25 µM	> 25 µM	> 25 µM	> 25 µM
COc1cc(/C=C/c2ccc(O)cc2)cc(OC)c1OC	11.6 µM	24.2 µM	> 25 µM	18.6 µM	> 25 µM
COc1ccc(NC(=O)c2cc(OC)c(OC)c(OC)c2)cc1	> 25 µM	> 25 µM	14.1 µM	12.2 µM	22.7 µM
COc1ccccc1/C=C/c1cc(OC)c(OC)c(OC)c1	13.5 µM	> 25 µM	12.2 µM	18 µM	12.1 µM
COc1cc(OC)c(OC)cc1/C=C/c1cc(OC)c(OC)c(OC)c1	> 25 µM	> 25 µM	> 25 µM	> 25 µM	> 25 µM
COc1cc(CCc2cc(OC)c(OC)c(OC)c2)cc(OC)c1	> 25 µM	> 25 µM	> 25 µM	> 25 µM	> 25 µM
COc1ccc(NC(=O)c2cc(OC)cc(OC)c2)cc1	11.9 µM	> 25 µM	9.02 µM	5.47 µM	14.5 µM
COc1cc(/C=C/c2ccc(Br)cc2)cc(OC)c1OC	6.53 µM	5.13 µM	6.47 µM	9.14 µM	12.7 µM
COc1cc(/C=C/c2ccc(OC)c(OC)c2)cc(OC)c1 [(E)-3,4,3',5'-TETRAMETHOXYSTILBENE]	> 25 µM	> 25 µM	> 25 µM	> 25 µM	> 25 µM
COc1ccc(/C=C\c2cc(OC)c(OC)c(OC)c2)cc1O [COMBRETASTATIN A4]		1.4e-05 µM		3.8e-06 µM	1.2e-05 µM
